Test results published in PMC8190080, “Tanshinones induce tumor cell apoptosis via directly targeting FHIT” (Scientific Reports, 2021).
Values belong to the compound of their own block, whether it stands above or below them.

What was measured:
WT HCT116 cells = experiment: Apoptosis detection by flow cytometry (Annexin V/PI), WT HCT116 cells; format: cell-based, human
Method: (§1) HCT116 cells treated with indicated compounds were digested with 0.25% trypsin (Gibco). The cells were harvested by centrifugation at 1000 rpm for 5 min. The trypsinization time should not be too long to prevent false positives. The cells were washed twice with pre-cooled PBS. The cells were resuspended with 1 × annexin-binding buffer and the cell density was adjusted to ~ 1 × 10^6 cells/ml. Then 5µL Alexa Fluor 488 annexin V and 1 µL 100 µg/mL PI working solution (V13241, Invitrogen) was added to each 100 µL cell suspension. The cells were incubated at room temperature in the dark for 15 min. After the incubation, 400 µL 1 × annexin-binding buffer was added to the cells, mixed gently, and kept the samples on ice. Analyze the stained cells by flow cytometry as soon as possible. The V-FITC positive and PI negative cells were recorded as apoptotic cells.

FHIT [1] = target: T1, FHIT (Homo sapiens, UniProt P49789); experiment: MST assay of the binding between tanshinone compounds and FHIT; details: Fig. 4B, FHIT preparation not stated
T1 construct: GST (N, cleaved yes); made in house; host or cells: E. coli BL21 (DE3)
Method: Ten million 293 cells overexpressing GFP-tagged FHIT or free GFP were lysed in 0.5 mL M-PER mammalian protein extraction reagent (Thermo Fisher Scientific). Cell lysates were diluted in PBS buffer to a final concentration at which the fluorescent signals of the GFP proteins were suitable for the detection of the Monolith NT.115 instrument (NanoTemper Technologies). A single point screening assay was developed against GFP-FHIT protein to find potential binding molecules from compound libraries (L1021,APExBIO). For binding affinity detection, a 10µL protein sample was mixed with 10µL ligand at various concentrations as indicated. And the purified proteins were labeled by Red- NHS kit in accordance with the manufacturer’s protocol (MO-L011, NanoTemper Technologies). Then the mixture solutions were loaded into NT.115 standard coated capillaries or premium coated capillaries (NanoTemper Technologies), and the MST measurements were performed at 25 °C. The fluorescence signal during the thermophoresis was monitored and the change in fluorescence was analyzed by software. The Kd was calculated by fitting a standard binding curve to the series diluted ligands. And data were analyzed by GraphPad Prism 7.0.

FHIT [2] = target: T1, FHIT; experiment: Fluorescent thin layer enzyme assay with ApppBODIPY (FHIT); format: biochemical; details: 10 nM Fhit, 5 µM ApppBODIPY, TLC; read-out: IC50, FHIT hydrolase activity (TLC assay)
Method: Fluorescent substrates ApppBODIPY at 5 µM were incubated with purified Fhit protein 10 nM in reactions at 25 °C containing 20 mM Tris–HCl, pH7.5, 150 mM NaCl, and 5 mM MgCl2. Competitive compounds, when indicated at series concentrations, were mixed with a fluorescent substrate. Reaction samples (0.6µL) were spotted on silica TLC plates (MERCK) at 60–120 s intervals. Plates were air-dried and developed in 2-propanol:NH4OH:1,4-dioxane: H2O (50:35:8:7) as reported before. Developed plates were imaged by fluorescein blot (ChemiDoc, Bio-Rad).

FHIT KO HCT116 cells = experiment: Apoptosis detection by flow cytometry (Annexin V/PI), FHIT KO HCT116 cells; format: cell-based, human; details: for apoptosis: KO cells
Source text: FHIT gene was deleted in HCT116 cells by CRISPR/Cas9 genome editing. A plasmid pL- CRISPR.EFS.GFP (#57,818, Addgene) encoding both the Cas9 protein and the sgRNA was used. The Cas9 sequence is coupled to a P2A site and EGFP. Expression of the Cas9 protein results in simultaneous expression of EGFP, allowing for the selection of positively transfected cells. Two sgRNA toward exon5 and exon6 of the FHIT gene, respectively, were designed by using the optimized CRISPR design online tool (http://crispr.cos.uni-heidelberg.de). The primers sequences of the sgRNA used were shown as below: sgRNA1 for exon5 forward, 5’[…]3’, reverse, 5’[…] GGACAC3’; sgRNA2 for exon6 forward, 5’[…]3’, reverse, 5’[…]3’. Plasmids containing the right insertion were then sequenced by Sangon Biotech Company (Shanghai, China). The two CRISPR/Cas9 plasmids were co-transfected into HCT116 cells as 1:1 using Lipofectamine3000 (Invitrogen). After 48 h, EGFP positive single cell was sorted into 96-well plates and the plates were left in the incubator for 7–14 days or until small colonies could be seen by the naked eye. Genomic DNA of each well was extracted by QuickExtract DNA Extraction Solution (Epicenter, Madison, WI) to do PCR identification. And the PCR products were then Sanger-sequenced to identify clones that would result in frameshifts and truncated protein products. Sequence alignment and genomic PCR primers were shown as below: forward, 5′[…]3′, revers, 5′[…]3′.
as §1, with “The cells were incubated at room temperature in the dark for 15 min. After the incubation, 400 µL 1 × annexin-binding buffer was added to the cells, mixed gently, and kept the samples on ice. Analyze the stained cells by flow cytometry as soon as possible.” left out

HCT116 cells [3] = experiment: CCK-8 assay for cell inhibitory rate; format: cell-based, human; details: WT HCT116 cells, 2 µM
Method: The CCK-8 (Cell-Counting Kit-8) assay was used to detect the cells’inhibitory rate following the manufacturer’s protocol (APExBIO). Cells were seeded into 96-well plates at the density of 4 × 10^3(cells/well) overnight at 37 °C. After that, the culture medium was removed and the cells were treated with different concentrations of TSA (0, 1, 2, 5, 10 µM) or STS (0, 10, 25, 50, 100 µM) for 24 h, 48 h, 72 h respectively. Then 10 μL CCK-8 reagent was added into each well and incubated for another 2 h, OD450 was measured by a microplate reader (spark, TECAN).

HCT116 cells [4] = experiment: Colony formation assay; format: cell-based, human; details: 1 µM, 14 days
Method: ENPP1 hydrolase activity detection assay
ENPP1 protein (4ng/µl) was mixed with series diluted compounds as indicated in assay buffer (50mM Tris-HCl, 2mM CaCl2, 2mM MgCl2, pH9.0) in a final DMSO concentration of 1% in a total volume of 20μL. The mixtures were incubated for 30min at 25°C, then 4µM Ap3A was added. After incubation at 25°C for 10min, ENPP1 should be inactivated at 85°C for 5min.
Then the production of ADP in the reaction system was detected by ADP-Glo reagent (V6930, Promega) according to the manufacturer’s protocol in 384-well. Luminescence was read by spark (TECAN), an integration time of 1 second per well. And the data were analyzed by […]
Fluorescent thin layer enzyme assay for ENPP1
Small molecules, when indicated at series concentrations, were mixed with 2.5µM the fluorescent substrate ApppBODIPY. Then, 10nM purified ENPP1 protein was added to the reaction system at 25°C containing 50mM Tris-HCl pH9.0, 2mM CaCl2, 2mM MgCl2. Reaction samples (0.6µL) were spotted on silica TLC plates (Merck) at 60–120s intervals. Plates were air-dried and developed in 2-propanol:NH4OH:1,4-dioxane: H2O (50:35:8:7) as reported before. Developed plates were imaged by fluorescein blot (ChemiDoc, Bio-rad).
Colony formation assay was performed as described before. Briefly, ~200/well single cells were planted into 6-well plate. […]

FHIT (H96N) = target: T2, FHIT (H96N) (Homo sapiens, UniProt P49789, H96N); experiment: Fluorescence polarization assay, FHIT H96N-ApppBODIPY binding inhibition; details: 5 µM FHIT (H96N), 1 µM ApppBODIPY
T2 construct: GST (N, cleaved yes); made in house; host or cells: E. coli BL21 (DE3)
Method: The binding of FHIT (H96N) to fluorescein-labeled substrates ApppBODIPY was analyzed by fluorescence polarization assay in 384-well format for dose–response curve studies using spark instrument (TECAN) according to the protocol reported before. And 5 µM FHIT (H96N) protein was incubated with 1 µM fluorescein-labeled substrates in buffer A (25 mM Tris–HCl, pH 7.5, 5 mM MgCl2 and 2 mM DTT) with series diluted inhibitors as indicated. Each sample was allowed to equilibrate in the solution for 30 min. After 30 min, the steady-state fluorescence anisotropy (mP) was measured. A second reading was taken after 10 min, to ensure that the mixture was well-equilibrated and stable. Less than 5% change was observed between 30 and 40 min measurements. The IC50 value was determined by fitting the binding curves using GraphPad Prism 7.0.

FHIT [5] = target: T1, FHIT; experiment: FHIT hydrolase activity detection assay (Ap3A, ADP-Glo); format: biochemical; details: 5 nM FHIT, 500 nM Ap3A, ADP production by ADP-Glo
Method: 5 nM FHIT protein was mixed with series diluted compounds as indicated in assay buffer (20 mM Tris–HCl, 2 mM DTT, 5 mM MgCl2, pH7.5) in a final DMSO concentration of 1% in a total volume of 20 μL. The mixtures were incubated for 30 min at 25 °C, then 500 nM Ap3A was added. After incubation at 25 °C for 5 min, the production of ADP in the reaction system was detected by ADP-Glo reagent (V6930, Promega) according to the manufacturer’s protocol in 384-well. Luminescence was read by spark (TECAN), an integration time of 1 s per well. And the data were analyzed by GraphPad Prism 7.0.

T1 sequence (P49789 whole entry): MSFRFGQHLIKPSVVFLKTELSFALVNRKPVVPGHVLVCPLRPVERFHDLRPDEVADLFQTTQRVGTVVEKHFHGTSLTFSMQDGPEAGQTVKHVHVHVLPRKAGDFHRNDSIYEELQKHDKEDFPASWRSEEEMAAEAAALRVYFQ
T2 sequence (P49789 whole entry H96N): as the sequence (P49789 whole entry) above, with H96N counted along it

Kd (FHIT [1]): 112 ± 27.3 nM
IC50 (FHIT [2]): 4000 to 6000 nM
SMILES: Cc1coc2c1C(=O)C(=O)c1c-2ccc2c1CCCC2(C)C [TSA, Tanshinone IIA]
apoptosis rate (WT HCT116 cells; 5 µM, 24 h): 13.5%
apoptosis rate (FHIT KO HCT116 cells; FHIT KO cells, 5 µM, 24 h): 4.9%
growth of HCT116 cells (CCK8) (HCT116 cells [3]): significantly inhibits the growth
colony formation of HCT116 cells (HCT116 cells [4]): clearly abolished the colony formation

SMILES: C[C@H]1COC2=C1C(=O)C(=O)c1c2ccc2c1CCCC2(C)C [CST, Cryptotanshinone]
Kd (FHIT [1]): 123 ± 31.7 nM
IC50 (FHIT [2]): 4000 to 6000 nM

Kd (FHIT [1]): 466 ± 60 nM
IC50 (FHIT [2]): 4000 to 6000 nM
SMILES: Cc1coc2c1C(=O)C(=O)c1c-2ccc2c(C)cccc12 [TanI, tanshinone I]
apoptosis (WT HCT116 cells; 10 µM): 31.66%
apoptosis (FHIT KO HCT116 cells; 10 µM): 12.7%

SMILES: CC[C@@]1(O)C(=O)OCc2c1cc1n(c2=O)Cc2cc3ccccc3nc2-1 [CPT, camptothecin]
apoptosis (WT HCT116 cells; 1 µM): 24.9%
apoptosis (FHIT KO HCT116 cells; 1 µM): 5.3%

IC50 (FHIT (H96N)): 2600 ± 44 nM
IC50 (FHIT [5]): 260 ± 80 nM
SMILES: Cc1ccc(C(=O)Nc2ccc(S(=O)(=O)O)c3cc(S(=O)(=O)O)cc(S(=O)(=O)O)c23)cc1NC(=O)c1cccc(NC(=O)Nc2cccc(C(=O)Nc3cc(C(=O)Nc4ccc(S(=O)(=O)O)c5cc(S(=O)(=O)O)cc(S(=O)(=O)O)c45)ccc3C)c2)c1 [suramin]
